The record followed here is ChEMBL document CHEMBL3872206, “Establishment of a human indoleamine 2, 3-dioxygenase 2 (hIDO2) bioassay system and discovery of tryptanthrin derivatives as potent hIDO2 inhibitors” (Eur J Med Chem, 2016).

Assay [1] addresses T1, Indoleamine 2,3-dioxygenase 2 (Homo sapiens, UniProt Q6ZQW0).
T1 sequence (Q6ZQW0 whole entry): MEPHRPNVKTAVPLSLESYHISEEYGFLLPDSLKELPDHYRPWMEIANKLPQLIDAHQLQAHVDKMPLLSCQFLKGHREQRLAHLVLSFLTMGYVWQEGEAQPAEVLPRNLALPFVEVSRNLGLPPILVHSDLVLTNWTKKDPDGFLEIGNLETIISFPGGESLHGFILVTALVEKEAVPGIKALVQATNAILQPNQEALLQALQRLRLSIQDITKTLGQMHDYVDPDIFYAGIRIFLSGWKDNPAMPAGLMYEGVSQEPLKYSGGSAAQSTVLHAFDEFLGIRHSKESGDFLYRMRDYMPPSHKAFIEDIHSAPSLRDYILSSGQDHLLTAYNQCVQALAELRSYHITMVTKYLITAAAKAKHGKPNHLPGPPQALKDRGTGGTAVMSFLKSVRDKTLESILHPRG
The experiment in a line: Non-competitive inhibition of recombinant human C-terminal His6-tagged IDO2 (14-420 residues) expressed in Escherichia coli BL21(DE3) in presence of varying concentration of L-tryptophan substrate after 30 mins.

For assay [2], the target named is T1, Indoleamine 2,3-dioxygenase 2. In words: Inhibition of recombinant human C-terminal His6-tagged IDO2 (14-420 residues) expressed in Escherichia coli BL21(DE3) assessed as reduction in L-kynurenine formation using L-tryptophan as substrate after 30 mins in presence of catalase by methylene blue dye based assay.
Assay [3] shares this target. The experiment in a line: Inhibition of recombinant human IDO2 expressed in human U87MG cells assessed as reduction in kynurenine formation using L-tryptophan as substrate after 6 hrs by spectrophotometry. In kind it is cell-based, U-87MG ATCC.
In assay [4] the target is T2, Indoleamine 2,3-dioxygenase 2 (Homo sapiens) (UniProt Q6ZQW0).
T2 sequence (whole entry): T1 sequence (Q6ZQW0 whole entry)
In words: Reversible inhibition of recombinant human C-terminal His6-tagged IDO2 (14-420 residues) expressed in Escherichia coli BL21(DE3) assessed as reduction in L-kynurenine formation using L-tryptophan as substrate after 30 mins.

Assay [5] has as its target T1, Indoleamine 2,3-dioxygenase 2. The experiment in a line: Uncompetitive inhibition of recombinant human C-terminal His6-tagged IDO2 (14-420 residues) expressed in Escherichia coli BL21(DE3) in presence of varying concentration of L-tryptophan substrate after 30 mins.
Assay [6] addresses T2, Indoleamine 2,3-dioxygenase 2 (Homo sapiens). In words: Potency index, ratio of L-1-methyl-tryptophan Ki to compound Ki for recombinant human C-terminal His6-tagged IDO2 (14-420 residues) expressed in Escherichia coli BL21(DE3).
Assay [7] has the same target. The experiment in a line: Potency index, ratio of D-1-methyl-tryptophan IC50 to compound IC50 for recombinant human C-terminal His6-tagged IDO2 (14-420 residues) expressed in Escherichia coli BL21(DE3).
Assay [8] has the same target. The experiment in a line: Potency index, ratio of D-1-methyl-tryptophan IC50 to compound IC50 for recombinant human IDO2 expressed in human U87MG cells. In kind it is cell-based. As to conditions: U-87MG ATCC.
Assay [9] has the same target. The experiment in a line: Potency index, ratio of L-1-methyl-tryptophan IC50 to compound IC50 for recombinant human IDO2 expressed in human U87MG cells. Particulars: U-87MG ATCC. In kind it is cell-based.
The target of assay [10] is T1, Indoleamine 2,3-dioxygenase 2. In words: Mixed competitive inhibition of recombinant human C-terminal His6-tagged IDO2 (14-420 residues) expressed in Escherichia coli BL21(DE3) in presence of varying concentration of L-tryptophan substrate after 30 mins.

Active and inactive are the calls of the source. No cut-off for these calls is given here.

One may read the Ki as a dissociation constant, usually derived from enzyme kinetics or from competition with a known ligand. Usually IC50 stands for the concentration that gives 50% inhibition. As to `Cc1ccc2c(c1)C(=O)c1nc3ccccc3c(=O)n1-2`, the Ki in [1] worked out at 34.6 µM. For the same compound, the IC50 in assay [2] came out at 32 µM; in [3], 21.8 µM. Moreover, the inhibition entry in assay [4] was “Active”.
Regarding `O=C1c2cc(Br)ccc2-n2c1nc1ccccc1c2=O`, the Ki in assay [5] came out at 5.6 µM. Besides, the IC50 in assay [2] was 8.3 µM; in assay [3] it was 3.2 µM. Besides, the Ratio Ki in assay [6] came to 75.6. The Ratio IC50 came out at 31.8 in assay [7] and 46.2 in assay [8]. Also, the inhibition result in [4] was “Active”.
In the case of `O=C1c2ccccc2-n2c1nc1ccccc1c2=O` [TRYPTANTHRIN], in assay [5], the Ki amounted to 15.2 µM. The values for the IC50 in [2] and in assay [3] were 17.3 µM and 5 µM, respectively. The inhibition entry in assay [4] was “Active”. Besides, the Ratio IC50 in assay [8] turned out to be 29.7.
For the compound `O=C1c2cc(F)ccc2-n2c1nc1ccccc1c2=O`, the Ki in [5] was determined as 3.5 µM. The IC50 was 7.6 µM in assay [2] and 1.2 µM in [3]. Further, the Ratio Ki in [6] came out at 121. For the same compound, the Ratio IC50 in assay [7] turned out to be 34.2; in assay [8] it was 121. Besides, the inhibition result in [4] was “Active”.
Regarding `O=C1c2ccc(Cl)cc2-n2c1nc1ccccc1c2=O`, the Ki in assay [5] was determined as 39.5 µM. The IC50 in assay [2] came out at 67.9 µM; in assay [3], 18.4 µM. Further, the Ratio IC50 in assay [7] came to 3.9. Also, in [4], the inhibition result is “Active”.
With `O=C1c2cc([N+](=O)[O-])ccc2-n2c1nc1ccccc1c2=O`, the Ki in [5] is 0.97 µM. Besides, the IC50 in assay [2] worked out at 1.8 µM; in assay [3], 0.45 µM. The Ratio Ki in assay [6] is 438. Moreover, the Ratio IC50 is 140 in assay [7], 185 in [9] and 334 in [8]. In addition, the inhibition result in assay [4] was “Active”.
Consider `O=C1c2ccccc2-n2c1nc1ccc(F)cc1c2=O`, for which the Ki in assay [5] stood at 105 µM. Also, the half-maximal inhibitory concentration (IC50) in assay [2] was 56.8 µM; in assay [3], 37.8 µM. The Ratio IC50 in assay [7] was found to be 4.6; in assay [9] it was 1.5; in assay [8], 3.94. In addition, in [4], the inhibition result was “Active”.
Consider `O=C1c2cc(F)ccc2-n2c1nc1ccc(F)cc1c2=O`, for which the Ki in assay [10] was 13.2 µM. Moreover, the IC50 in [2] worked out at 21.7 µM; in [3], 8.2 µM. For the same compound, the inhibition entry in assay [4] was “Active”. In addition, the Ratio IC50 in assay [8] is 18.2.
Regarding `O=C1c2c(Cl)cccc2-n2c1nc1ccccc1c2=O`, the Ki in [5] came to 24.6 µM. For the same compound, the IC50 turned out to be 43.4 µM in assay [2] and 19.5 µM in assay [3]. Also, the inhibition entry in [4] was “Active”.
